Results: patent publication US9000029B2, “Proline sulfonamide derivatives as orexin receptor antagonists” (Actelion Pharmaceuticals Ltd., priority 2010, dated 2015)

Legend:
[1] = tested on: Wistar Rats; assay: Social stress-induced hyperthermia and tachycardia; format: in vivo, rat; details: 100 mg/kg orally two hours before one hour social interaction stress
Source text: 3) Effects on Social Stress-Induced Hyperthermia and Tachycardia
Exposure to both physiological and psychological stress in mammals leads to an elevation of core body temperature and heart rate referred to as stress-induced hyperthermia (SIH) and stress-induced tachycardia (SIT).
The SIH/SIT response can be observed in humans equally well as in rodents providing excellent animal to human translational possibilities.
12 male Wistar rats were implanted intraperitoneally with transmitters that allowed the simultaneous recording of body temperature (in degrees Celsius) [FIG. 2 A)] and heart rate (in beats per minute) [FIG. 2 B)] via external receivers. Rats were treated orally with 100 mg/kg of compound of example 26 two hours before exposure to an one hour-lasting social interaction stress. Columns 1 and 2 show the effect on body temperature [FIG. 2 A)], respectively heart rate [FIG. 2 B)], after vehicle (1) or drug (2) treatment without exposure to stress; columns 3 and 4 show the effect with exposure to stress after vehicle (3) or drug (4) treatment.

[2] = tested on: Wistar Rats; assay: Sedative effects: EEG, EMG and behavioural indices of alertness recorded by radiotelemetry; format: in vivo, rat; details: 100 mg/kg po; effects analyzed over 6 hours; compared to vehicle controls
Protocol: II. Biological Assays 1) Sedative Effects: EEG, EMG and Behavioural Indices of Alertness Recorded by Radiotelemetry In Vivo in Wistar Rats.
Electroencephalography (EEG) and Electromyography (EMG) signals were measured by telemetry using TL11M2-F20-EET miniature radiotelemetric implants (Data Science Int.) with two pairs of differential leads.
Surgical implantation was performed under general anesthesia with Ketamin/Xylazin, for cranial placement of one differential pair of EEG electrodes and one pair of EMG leads inserted in either side of the muscles of the neck. After surgery, rats recovered in a thermoregulated chamber and received analgesic treatment with subcutaneous buprenorphine twice a day for 2 d. They were then housed individually and allowed to recover for a minimum of 2 weeks. Thereafter, rats—in their home cage—were placed in a ventilated sound-attenuating box, on a 12-h light/12-h dark cycle, for acclimatization before continuous EEG/EMG recordings started. The telemetric technology that we used in this study allows accurate and stress-free acquisition of biosignals in rats placed in their familiar home cage environment, with no recording leads restricting their movements. Variables analyzed included four different stages of vigilance and sleep, spontaneous activity in the home cage and body temperature. Sleep and wake stages were evaluated using a rodent scoring software (Somnologica Science) directly processing electrical biosignals on 10 s contiguous epochs. The scoring is based on frequency estimation for EEG and amplitude discrimination for EMG and locomotor activity. Using these measurements, the software determines the probability that all components within each epoch best represent active waking (AW), quiet waking (QW), non-REM-sleep (NREM) or REM-sleep (REM). The percentage of total time spent in AW, QW, NREM- and REM-sleep was calculated per 12 h light or dark period. The latency to the onset of the first significant NREM- and REM-sleep episodes and the frequency and duration of those episodes were also calculated. AW, QW, NREM- and REM-sleep, home cage activity and body temperature were measured at baseline for at least one total circadian cycle (12 h-night, 12 h-day) before a test compound was administered. […] All variables were subsequently recorded for 12 h following administration of the orexin receptor antagonist.
The compound of Example 26 has been tested in this assay (oral dosage: 100 mg/kg po; effects analyzed over 6 hours): Results are: −26% on active wake, −51% on home cage activity, +28% on NREM sleep, +69% on REM sleep; when compared to vehicle controls.

SMILES: COc1ccc(S(=O)(=O)N2CCC[C@H]2C(=O)Nc2cc(C)cc(C)c2)cc1 [Example 26, (S)-1-(4-Methoxy-benzenesulfonyl)-pyrrolidine-2-carboxylic acid (3,5-dimethyl-phenyl)-amide]
- social stress-induced hyperthermia [1]: significantly attenuated
- social stress-induced tachycardia [1]: significantly attenuated
- effect on NREM sleep [2]: +28%
- effect on REM sleep [2]: +69%
- effect on active wake [2]: −26%
- effect on home cage activity [2]: −51%
